The values below come from patent US20060293346A1, “Fungicidal mixtures” (priority 2003, published 2006).

For the test, the system named is Plasmopara viticola. In words: Activity against peronospora of grapevines caused by Plasmopara viticola (protective spray of potted vines, cultivar Riesling). The test is classed as in vivo. As to conditions: individual active compound, untreated control 84% infection. The procedure:
The active compounds, separately or jointly, were prepared as a stock solution comprising 0.25% by weight of active compound in acetone or DMSO. 1% by weight of the emulsifier Uniperol® EL (wetting agent having emulsifying and dispersant action based on ethoxylated alkylphenols) was added to this solution, and the mixture was diluted with water to the desired concentration.
Use Example—Activity Against peronospora of Gravevines Caused by Plasmopara viticola
Leaves of potted vines of the cultivar “Riesling” were sprayed to runoff point with an aqueous suspension having the concentration of active compound stated below. The next day, the undersides of the leaves were inoculated with an aqueous zoospore suspension of Plasmopara viticola. The grapevines were then initially placed in a water-vapor-saturated chamber at 24° C. for 48 hours and then in a greenhouse at 20-30° C. for 5 days. After this period of time, the plants were again placed in a humid chamber for 16 hours to promote sporangiophore eruption. The extent of the development of the disease on the undersides of the leaves was then determined visually.
The visually determined percentages of infected leaf areas were converted into efficacies in % of the untreated control:
The efficacy (E) is calculated as follows using Abbot's formula: E=(1−α/β)·100 • α corresponds to the fungicidal infection of the treated plants in % and • β corresponds to the fungicidal infection of the untreated (control) plants in %
An efficacy of 0 means that the infection level of the treated plants corresponds to that of the untreated control plants; an efficacy of 100 means that the treated plants were not infected.
The expected efficacies of combinations of active compounds were determined using Colby's formula (Colby, S. R. “Calculating synergistic and antagonistic responses of herbicide combinations”, Weeds, 15, pp. 20-22, 1967) and compared with the observed efficacies.
Colby's Formula: E=x+y−x·y/100 • E expected efficacy, expressed in % of the untreated control, when using the mixture of the active compounds A and B at the concentrations a and b • x efficacy, expressed in % of the untreated control, when using the active compound A at the concentration a • y efficacy, expressed in % of the untreated control, when using the active compound B at the concentration b

The mark [1] stands for this setting: 4 ppm in the spray liquor, vines Riesling.

On to `Fc1ccc(Oc2ccnc3cc(Cl)cc(Cl)c23)cc1` [II (quinoxyfen), 5,7-dichloro-4-(4-fluorophenoxy)quinoline], for which the “Efficacy in % of the untreated control” value was 0% (1 ppm in the spray liquor (cell prints 161 = 16 and 1)); 16% (16 ppm in the spray liquor (cell prints 161 = 16 and 1)).
For `C[C@H](Nc1c(-c2c(F)cc(F)cc2F)c(Cl)nc2ncnn12)C(F)(F)F` [B], the “Efficacy in % of the untreated control” value under setting [1] was 52%.
The same measure, in the same setting: next, `CC1CCN(c2c(-c3c(F)cc(F)cc3F)c(Cl)nc3ncnn23)CC1` [I, 5-chloro-7-(4-methylpiperidin-1-yl)-6-(2,4,6-trifluorophenyl)-[1,2,4]triazolo[1,5-a]pyrimidine]: 52%.
Still for that read-out and setting: as for `CC1CCN(c2c(-c3c(F)cccc3Cl)c(Cl)nc3ncnn23)CC1` [A], the figure is 16%.
